These results are taken from ChEMBL document CHEMBL1152143, “Potent benzimidazolone-based CGRP receptor antagonists” (Bioorg Med Chem Lett, 2008).

Common to all, as to conditions: Macaca mulatta
For test [1], the system named is Rhesus monkey. Description: Inhibition of CGRP-induced vasodilation in rhesus monkey at plasma concentration of 2 uM. Type of test: functional.
For test [2], the system named is Rhesus monkey. The test is described as follows: Inhibition of CGRP-induced vasodilation in rhesus monkey.
Test [3] relates to Rhesus monkey. Description: Inhibition of CGRP-induced vasodilation in rhesus monkey at plasma concentration of 10 uM. The format is functional.

For `Cc1cc(C)c2c(c1)n(CC(=O)Nc1ccc3c(c1)C[C@]1(C3)C(=O)NC(=O)N1C)c(=O)n2CC(=O)N(C)C`, the inhibition – broadly, the percentage by which the read-out fell short of the control – at 2 µM with Rhesus monkey [1] came to 100%. For the same compound, in the test on Rhesus monkey [2], the response was half-maximal at 0.3 µM (EC50).
As to `Cc1cc(C)c2c(c1)n(CC(=O)Nc1ccc3c(c1)C[C@]1(C3)C(=O)NC(=O)N1C)c(=O)n2C`, in the test on Rhesus monkey [3], at 10 µM the inhibition was 50%. In addition, the EC50 (commonly the concentration needed to bring the measured effect to its halfway point) with Rhesus monkey [2] was 10 µM.
